Where a name gives a salt, the structure may show the parent alone. Read-outs that look alike come from different tables or passages of the source.
Experiments:
[1] = target: T1, Src (Homo sapiens, UniProt P12931); assay: Src protein tyrosine kinase inhibition (ELISA of Poly[Glu:Tyr-P]); assay type: biochemical
T1 construct: host or cells: Sf9 insect cells
Procedure: Src protein tyrosine kinase activity was assessed in human recombinant insect Sf9 cells using as a substrate Poly(Glu:Tyr) at 10 µg/mL with preincubation and incubation times of 15 and 5 min, respectively, at 22°C in 50 mM HEPES, pH 7.4, 1 mM DTT, 20 mM MgCl2 and 0.2 mM Na3VO4. An ELISA quantitation method of Poly[Glu:Tyr-P] was employed (Farley, K et al. Anal Biochem, 1992, 203, 151-157). Table 4. Inhibition of Src at 10 µM

[2] = target: T2, Akt3 (PRKBG) (Homo sapiens, UniProt Q9Y243); assay: Akt3 kinase inhibition ([32P]Crosstide KK); assay type: biochemical
T2 construct: host or cells: insect cells
Procedure: Akt3 activity was obtained in human recombinant insect cells using Crosstide KK 10 µM as a substrate. The incubation buffer was 20 mM MOPS, pH 7.2, 25 mM β-Glycerophosphate, 1 mM DTT, 5 mM EGTA, 20 mM MgCl2, 1 mM Na3VO4 and the preincubation and incubation times 15 and 30 min, respectively, at 37°C. The quantification of inhibition was assessed by the measure of [^32P]Crosstide KK (Laine, J. Et al. J Biol Chem 2002, 277(5), 3743-3751). Table 6. Inhibition of Akt3 (PRKBG) at 10 µM

[3] = target: T3, CDK2/CCNA2 (cdk2/cyclin A) (Homo sapiens, UniProt P24941); assay: CDK2/cyclin A kinase inhibition ([32P]Histone H1); assay type: biochemical
T3 construct: host or cells: Sf21 insect cells
Procedure: Human recombinant Sf21 cells were employed to assess the activity on protein serine threonine kinase CDK2/CCNA2 (cdk2/cyclin A). Histone H1 at 100 µg/ml was used as a substrate and the activity was measured by quantification of [^32P]Histone H1 after preincubation and incubation times of 15 and 30 min, respectively, at 37°C in 20 mM MOPS, pH 7.2, 5 mM EGTA, 20 mM MgCl2, 1 mM DTT, 25 mM β-Glycerophosphate, 1 mM Na3V04 incubation buffer (Gray, N. et al. Curr Med Chem, 1999, 6(9):859-875). Table 7. Inhibition of CDK2 at 10 µM

[4] = target: T4, MAPK1 (ERK2) (Homo sapiens, UniProt P28482); assay: MAPK1 (ERK2) kinase inhibition ([32P]MBP); assay type: biochemical
T4 construct: host or cells: E. coli
Procedure: Protein serine threonine kinase MAPK1(ERK2) was assessed in human recombinant E.Coli using 50 µg/ml myelin basic protein (MBP) as a substrate after preincubation and incubation times of 15 and 30 min, respectively, at 37°C in 20 mM MOPS, pH 7.2, 5 mM EGTA, 20 mM MgCl2, 1 mM DTT, 25 mM β-glycerophosphate, 1 mM Na3VO4 incubation buffer. The inhibitory activity was measured by quantification of [^32P]MBP (Jonhson, G.L. and Lapadat, R. Science 2002, 298(5600), 1911-1912). Table 8. Inhibition of MAPK1 at 10 µM

[5] = tested on: mice; assay: Hot plate test (analgesic activity); assay type: in vivo
Procedure: The hot plate test was used as an animal model of thermally-induced pain. The inhibitory activity measured on the time licking and biting induced by temperature (30 sec max at 55°C) indicates analgesic effect. […] Table 13. Analgesic activity of example 1 in the hot plate test

[6] = target: ERα (Homo sapiens, UniProt P03372); assay: Inhibition of ERα; assay type: binding; details: slight, non-significant
[7] = target: ERβ (Homo sapiens, UniProt Q92731); assay: Inhibition of ERβ; assay type: binding; details: slight, non-significant
[8] = tested on: mice; assay: Hot plate test (analgesic activity); assay type: in vivo; remark: listed apart in the source

T4 sequence (P28482 whole entry): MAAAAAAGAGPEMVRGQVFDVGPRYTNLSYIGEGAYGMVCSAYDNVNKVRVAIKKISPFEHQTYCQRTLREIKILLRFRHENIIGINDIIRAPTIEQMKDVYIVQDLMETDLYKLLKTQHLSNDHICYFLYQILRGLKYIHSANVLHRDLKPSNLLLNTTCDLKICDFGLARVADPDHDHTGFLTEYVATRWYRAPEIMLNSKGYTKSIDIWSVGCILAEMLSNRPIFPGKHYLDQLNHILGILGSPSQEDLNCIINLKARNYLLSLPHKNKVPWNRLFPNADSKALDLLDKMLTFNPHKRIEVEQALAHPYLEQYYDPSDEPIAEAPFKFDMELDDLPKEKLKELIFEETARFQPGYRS
T2 sequence (Q9Y243 whole entry): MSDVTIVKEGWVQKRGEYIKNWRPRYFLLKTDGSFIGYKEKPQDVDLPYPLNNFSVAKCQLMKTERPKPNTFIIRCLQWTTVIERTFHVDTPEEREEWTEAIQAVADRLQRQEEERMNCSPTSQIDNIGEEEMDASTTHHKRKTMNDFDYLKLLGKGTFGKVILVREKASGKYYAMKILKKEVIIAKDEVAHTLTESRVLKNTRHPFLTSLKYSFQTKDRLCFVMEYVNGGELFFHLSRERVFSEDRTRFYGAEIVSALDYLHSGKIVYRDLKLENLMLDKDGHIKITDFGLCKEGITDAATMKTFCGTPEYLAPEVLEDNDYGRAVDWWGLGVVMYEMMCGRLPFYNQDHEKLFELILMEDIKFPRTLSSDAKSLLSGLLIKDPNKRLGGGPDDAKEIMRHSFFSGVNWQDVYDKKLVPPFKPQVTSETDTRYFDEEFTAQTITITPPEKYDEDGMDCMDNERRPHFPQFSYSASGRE
T1 sequence (P12931 whole entry): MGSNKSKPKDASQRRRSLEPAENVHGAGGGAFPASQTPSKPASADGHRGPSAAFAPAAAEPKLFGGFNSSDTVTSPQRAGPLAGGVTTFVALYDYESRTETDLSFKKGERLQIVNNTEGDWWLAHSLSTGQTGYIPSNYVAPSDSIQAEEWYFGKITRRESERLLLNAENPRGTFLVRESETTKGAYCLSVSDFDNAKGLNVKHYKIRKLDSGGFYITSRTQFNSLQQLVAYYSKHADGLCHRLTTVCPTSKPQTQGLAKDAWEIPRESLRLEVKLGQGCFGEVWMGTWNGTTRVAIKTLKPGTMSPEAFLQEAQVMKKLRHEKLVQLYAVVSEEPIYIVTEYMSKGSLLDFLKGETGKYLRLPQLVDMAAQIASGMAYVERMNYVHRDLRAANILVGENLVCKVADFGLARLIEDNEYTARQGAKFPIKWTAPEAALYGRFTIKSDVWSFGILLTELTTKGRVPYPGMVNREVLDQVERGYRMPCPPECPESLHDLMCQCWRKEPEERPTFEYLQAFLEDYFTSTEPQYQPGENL
ERβ, sequence (Q92731 whole entry, species assumed): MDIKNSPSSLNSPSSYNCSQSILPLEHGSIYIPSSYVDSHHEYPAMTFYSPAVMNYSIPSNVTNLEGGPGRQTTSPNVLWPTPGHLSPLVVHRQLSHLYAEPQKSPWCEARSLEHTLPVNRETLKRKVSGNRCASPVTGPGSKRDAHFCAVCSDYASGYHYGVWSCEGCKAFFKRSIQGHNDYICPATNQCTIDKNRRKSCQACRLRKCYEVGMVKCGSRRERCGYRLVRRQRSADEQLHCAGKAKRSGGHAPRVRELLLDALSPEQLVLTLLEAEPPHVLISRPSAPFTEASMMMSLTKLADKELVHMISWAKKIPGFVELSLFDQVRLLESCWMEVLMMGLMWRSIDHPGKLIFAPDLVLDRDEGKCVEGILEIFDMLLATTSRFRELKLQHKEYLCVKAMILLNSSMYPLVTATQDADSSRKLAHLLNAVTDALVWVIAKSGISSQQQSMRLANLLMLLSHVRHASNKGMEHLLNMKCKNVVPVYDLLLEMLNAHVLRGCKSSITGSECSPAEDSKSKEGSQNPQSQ
ERα, sequence (P03372 whole entry, species assumed): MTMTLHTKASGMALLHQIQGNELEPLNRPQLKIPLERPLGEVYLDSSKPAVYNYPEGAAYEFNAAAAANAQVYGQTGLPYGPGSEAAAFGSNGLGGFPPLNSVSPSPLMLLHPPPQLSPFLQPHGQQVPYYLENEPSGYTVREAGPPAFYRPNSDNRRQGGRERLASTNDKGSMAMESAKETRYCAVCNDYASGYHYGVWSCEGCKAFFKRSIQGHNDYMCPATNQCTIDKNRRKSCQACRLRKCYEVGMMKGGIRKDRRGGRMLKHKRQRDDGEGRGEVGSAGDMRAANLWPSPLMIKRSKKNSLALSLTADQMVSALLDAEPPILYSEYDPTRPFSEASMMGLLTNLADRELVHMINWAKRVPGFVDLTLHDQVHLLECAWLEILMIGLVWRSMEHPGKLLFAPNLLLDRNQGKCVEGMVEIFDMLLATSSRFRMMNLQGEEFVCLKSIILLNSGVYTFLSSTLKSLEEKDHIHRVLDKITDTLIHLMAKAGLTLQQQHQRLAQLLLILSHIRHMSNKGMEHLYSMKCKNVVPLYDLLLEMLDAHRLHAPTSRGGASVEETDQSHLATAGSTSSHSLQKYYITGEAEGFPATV

## C=CCc1ccc(O)c(-c2cc(CC=C)ccc2OC(CCNC)c2ccccc2)c1.Cl (stereo not shown) [Example 1, 5,5'-Diallyl-2'-[3-(methylamino)-1-phenylpropoxy]biphenyl-2-ol hydrochloride]
[1]; Src, at 10 µM, read-out: % Inhibition
  inhibition at 10 µM: 99%
[2]; Akt3 (PRKBG), at 10 µM, read-out: % Inhibition
  inhibition at 10 µM: 99%
[3]; CDK2, at 10 µM, read-out: % Inhibition
  inhibition at 10 µM: 92%
[4]; MAPK1, at 10 µM, read-out: % Inhibition
  inhibition at 10 µM: 58%
[5]; dose 5 mg/kg i.p.
  Time Licking and biting (sec) Late phase (15-30 min): 150 s
[5]; dose 10 mg/kg i.p.
  Time Licking and biting (sec) Late phase (15-30 min): 150 s
[5]; dose 30 mg/kg i.p.
  Time Licking and biting (sec) Late phase (15-30 min): 20 s
[5]; dose not given
  antinociceptive activity in the hot plate test: antinociceptive activity
[6]
  inhibition at 10 µM: 13%
[7]
  inhibition at 10 µM: 7%
[8]; dose 1 mg/kg i.p.
  Time Licking and biting (sec) Early phase (0-5 min): 57 s
  Time Licking and biting (sec) Late phase (15-30 min): 200 s
[8]; dose 5 mg/kg i.p.
  Time Licking and biting (sec) Early phase (0-5 min): 45 s
[8]; dose 10 mg/kg i.p.
  Time Licking and biting (sec) Early phase (0-5 min): 38 s
[8]; dose 30 mg/kg i.p.
  Time Licking and biting (sec) Early phase (0-5 min): 30 s

## C=CCc1ccc(O)c(-c2ccc(OC(CCNC)c3ccccc3)c(CC=C)c2)c1 (stereo not shown) [Example 5, 3',5-Diallvl-4'-13-(methylamino)-1-phenylpropoxy]biphenyl-2-ol hydrochloride]
[1]
  inhibition at 10 µM: > 100%
[2]
  inhibition at 10 µM: 101%
[3]
  inhibition at 10 µM: 98%
[4]
  inhibition at 10 µM: 80%
